Assay [1] has as its system Mus musculus. In words: In vivo calcemic effect was tested in vitamin D replete normal […] mice by measuring calcium levels in serum. It is filed as functional.
The target of assay [2] is T1, Vitamin D3 receptor (Homo sapiens) (UniProt P11473).
T1 sequence (whole entry): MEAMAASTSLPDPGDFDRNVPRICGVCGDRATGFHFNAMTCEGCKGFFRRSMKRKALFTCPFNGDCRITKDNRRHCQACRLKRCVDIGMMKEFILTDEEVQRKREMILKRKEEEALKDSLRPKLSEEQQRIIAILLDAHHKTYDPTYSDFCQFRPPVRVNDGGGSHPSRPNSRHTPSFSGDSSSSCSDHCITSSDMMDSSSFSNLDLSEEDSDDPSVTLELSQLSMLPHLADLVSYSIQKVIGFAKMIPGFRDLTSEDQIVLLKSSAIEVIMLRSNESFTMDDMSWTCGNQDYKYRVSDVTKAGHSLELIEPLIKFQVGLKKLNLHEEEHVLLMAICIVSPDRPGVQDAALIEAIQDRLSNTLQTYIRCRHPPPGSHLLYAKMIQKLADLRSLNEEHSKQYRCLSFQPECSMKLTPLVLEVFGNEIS
As to the kind of experiment: Relative affinity compared to Calcitriol in displacement of [3H]1H]1-alpha,25(OH)2D3 from Vitamin D3 receptor in Keratinocyte cell lines.

The target in assay [3] is T2, Vitamin D3 receptor (Sus scrofa) (UniProt A3RGC1).
T2 sequence (whole entry): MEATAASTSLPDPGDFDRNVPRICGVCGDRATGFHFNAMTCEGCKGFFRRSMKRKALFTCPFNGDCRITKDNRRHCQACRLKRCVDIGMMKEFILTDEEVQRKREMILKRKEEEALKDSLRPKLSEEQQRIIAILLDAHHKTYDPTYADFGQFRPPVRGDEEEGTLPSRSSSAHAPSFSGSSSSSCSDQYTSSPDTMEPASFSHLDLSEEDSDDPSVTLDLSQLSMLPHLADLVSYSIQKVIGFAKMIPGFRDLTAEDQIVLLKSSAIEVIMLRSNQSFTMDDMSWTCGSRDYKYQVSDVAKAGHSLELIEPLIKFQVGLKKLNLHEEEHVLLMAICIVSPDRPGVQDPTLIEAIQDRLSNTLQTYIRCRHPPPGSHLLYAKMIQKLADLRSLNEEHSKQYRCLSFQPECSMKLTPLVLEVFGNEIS
As to the kind of experiment: Affinity for pig intestinal mucosa Vitamin D3 receptor (VDR). It is filed as tissue-based.

Assay [4] concerns the target T1, Vitamin D3 receptor (Homo sapiens). In words: Relative affinity compared to Calcitriol in displacement of [3H]1H]1-alpha,25(OH)2D3 from vitamin D3 receptor in […] cells. It is filed as cell-based. For orientation: In a radioligand displacement assay an active substance lowers the binding of a labelled ligand.
Assay [5] has the same target. In words: Relative affinity compared to Calcitriol in displacement of [3H]1H]1-alpha,25(OH)2D3 from vitamin D3 receptor in HL-60 cells. It is filed as cell-based.
Assay [6] shares this target. In words: Relative affinity compared to Calcitriol in displacement of [3H]1H]1-alpha,25(OH)2D3 from vitamin receptor (VDR) in keratinocyte cells. It is filed as functional, cell-based.
The target is the same in assay [7]. As to the kind of experiment: Relative affinity compared to Calcitriol in displacement of [3H]1H]1-alpha,25(OH)2D3 from vitamin D receptor (VDR) in […] cells. It counts as cell-based.
Assay [8] concerns the target T2, Vitamin D3 receptor (Sus scrofa). In words: Affinity for pig intestinal mucosa vitamin D receptor (VDR).
The target of assay [9] is T1, Vitamin D3 receptor (Homo sapiens). In words: Relative affinity compared to Calcitriol in displacement of [3H]1H]1-alpha,25(OH)2D3 from vitamin D receptor (VDR) in HL-60 cells. It is filed as functional, cell-based.

Each structure is given as a SMILES string.

In the case of `C=C1/C(=C/C=C2/CCC[C@]3(C)[C@@H]([C@H](C)CC#C[C@](C)(O)CO)CC[C@@H]23)C[C@@H](O)C[C@@H]1O`, the Activity in assay [1] was 0.7; in [2], 250%; in [3], 70; in [4] it was 150%; in [5], 150%.

With `C=C1/C(=C/C=C2/CCC[C@]3(C)[C@@H]([C@H](C)CC#C[C@@]4(C)CO4)CC[C@@H]23)C[C@@H](O)C[C@@H]1O`, the Activity is 0.3 in assay [1]; 250% in assay [2]; 60 in assay [3]; 150% in assay [4]; 150% in assay [5].

With `C=C1/C(=C/C=C2/CCC[C@]3(C)[C@@H]([C@H](C)CC#CC4(C)CO4)CC[C@@H]23)C[C@@H](O)C[C@@H]1O` (stereo not given in full), the Activity is 0.25 in assay [1]; 250% in assay [2]; 70 in assay [3]; 150% in assay [4]; 150% in [5].

For `C=C1/C(=C/C=C2/CCC[C@]3(C)[C@@H]([C@H](C)CC#C[C@]4(C)CO4)CC[C@@H]23)C[C@@H](O)C[C@@H]1O`, the Activity is 0.2 in assay [1]; 250% in [6]; 150% in [7]; 75 in assay [8]; 150% in assay [9].

Regarding `C=C1/C(=C/C=C2/CCC[C@]3(C)[C@@H]([C@H](C)CC#C[C@@](C)(O)CO)CC[C@@H]23)C[C@@H](O)C[C@@H]1O`, the Activity is 0.1 in assay [1]; 250% in assay [2]; 80 in [3]; 150% in [4]; 150% in [5].
